Holding throughout (experiment): NCI tumour cell line growth inhibition, 48 h
Experiment [1] deals with OVCAR-8 ovarian.
The test system of experiment [2] is RPMI-8226 leukemia.
The test system of experiment [3] is EKVX NSCLC.
The subject of experiment [4] is OVCAR-3 ovarian.
For experiment [5], the system named is HT29 colon.
Experiment [6] deals with UACC-257 melanoma.
The subject of experiment [7] is HS 578T breast.
The subject of experiment [8] is SK-MEL-2 melanoma.
Experiment [9] relates to NCI-H522 lung.
Experiment [10] relates to NCI-H226 lung.

Where “and” joins values, the source holds several entries; their conditions need not be identical. Equal entries are not always repeated.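 Briefly, cells in 96-well plates were exposed to five compound concentrations for 48 h, and endpoints were estimated by linear interpolation. GI50 = concentration required for 50% inhibition of growth. TGI marks complete inhibition of growth.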

Here are results for eight molecules from PubChem BioAssay (NCI).

Consider `C/C=C1\C[C@@H]2C(OC)Nc3cc(O)c(OC)cc3C(=O)N2C1` (some centres undefined), for which the GI50 was 0.00804 µM in experiment [1]; 0.00269 µM in [2]; 0.0176 µM in [3]; 0.00419 µM in [4]; 0.0075 µM in [5]; 0.00288 µM in experiment [8]. Also, the results for the GI50 in [9] and in [10] were 0.00119 µM and 0.116 µM, respectively. Also, the TGI in experiment [1] is 0.61 µM and 1.03 µM; in experiment [3] it was 0.105 µM and 0.0346 µM; in experiment [4] it was 0.0341 µM; in experiment [5] it was 0.16 µM and < 0.215 µM; in experiment [6], 0.0413 µM and < 0.0126 µM; in experiment [7] it was 0.0575 µM and < 0.0282 µM. The TGI in [8] was 0.00713 µM and < 0.0159 µM; in experiment [9], 0.00432 µM; in [10], 0.728 µM and 0.163 µM.
Take `CS(=O)(=O)c1ccc(-c2[nH]c3ccc(F)cc3c2/C=N/NC(N)=S)cc1`: the GI50 in experiment [1] is 2.76 µM; in experiment [2], 0.475 µM; in experiment [3], 3.94 µM; in [4] it was 0.446 µM; in experiment [5], 0.558 µM; in [6], over 100 µM. The GI50 in experiment [7] is 0.293 µM; in [8], 10.6 µM; in experiment [9], 0.466 µM; in [10], 3.28 µM. Also, the TGI was over 100 µM in experiment [1]; 6.64 µM in experiment [2]; over 100 µM in experiment [3]; 12.1 µM in [4]; 15.2 µM in experiment [5]; over 100 µM in [6]. In addition, the TGI in [7] is 7.74 µM; in [8], over 100 µM; in experiment [9], 3.75 µM; in experiment [10] it was over 100 µM.
Turning to `Cc1nc2sc(C(=O)Nc3cccc(Cl)c3C)c(N)c2cc1C(=O)c1ccccc1`, the GI50 in experiment [1] was 0.403 µM; in experiment [2], 0.249 µM; in experiment [3] it was 0.292 µM; in experiment [4], 0.176 µM; in experiment [5], 0.202 µM; in experiment [6] it was 14.6 µM. For the same molecule, the GI50 in experiment [7] is 0.194 µM; in [8] it was 0.329 µM; in experiment [9], 0.205 µM; in experiment [10], 1.28 µM. Further, the TGI in [1] was over 50 µM; in experiment [2], over 15.9 µM; in [3], over 50 µM; in experiment [4] it was 1.37 µM; in experiment [5] it was over 17.9 µM; in experiment [6], over 50 µM. Further, the TGI in experiment [7], in [8] and in experiment [10] was over 50 µM throughout.
On to `COc1ccc2c(c1)c(-c1nc(-c3cn(C)c4ncccc34)cs1)cn2CCCCN1CCOCC1`, for which the GI50 in experiment [1] is 2.3 µM; in experiment [2], 1.25 µM; in experiment [3], 1.54 µM; in experiment [4], 1.62 µM; in [5], 0.766 µM; in [6], 1.66 µM. The GI50 in experiment [7] is 1.22 µM; in [8] it was 2.05 µM; in experiment [9] it was 1.77 µM; in [10], 2.53 µM. For the same molecule, the TGI in experiment [1] is 5.43 µM; in [2], 3.89 µM; in experiment [3], 4.77 µM; in [4], 3.38 µM; in [5] it was 1.95 µM; in [6], 3.28 µM. Also, the TGI in experiment [7] was determined as 5.46 µM; in experiment [8], 4.29 µM; in [9], 3.81 µM; in experiment [10], 8.81 µM.
`CC(=O)Nc1ccc(S(=O)(=O)c2ccc(NC(C)=O)cc2)cc1`: the GI50 was over 100 µM in experiment [1]; over 100 µM in experiment [2]; 64 µM in [3]; 61.8 µM in experiment [4]; over 100 µM in experiment [5]; over 100 µM in experiment [6]. The GI50 in experiment [7], in experiment [8], in experiment [9] and in [10] was over 100 µM each time. The TGI in [1], in experiment [2], in experiment [3], in [4], in [5] and in [6] was over 100 µM in each case. Besides, the TGI in [7], in [8], in [9] and in experiment [10] was over 100 µM in each case.
For the molecule `CC(C)NCCCCCNc1cc(O)cc2cccnc12`, the GI50 in experiment [1] was over 100 µM; in experiment [2], over 23.1 µM; in experiment [3], 22.8 µM; in experiment [4], 2.43 µM; in [5], 31.6 µM; in [6] it was 17.7 µM. For the same molecule, the GI50 in [7] is over 42.5 µM; in experiment [8], over 100 µM; in experiment [9], 3.94 µM; in experiment [10], over 100 µM. Also, the TGI in experiment [1] is over 100 µM; in experiment [2], over 100 µM; in [3] it was over 100 µM; in experiment [4], 9.37 µM; in experiment [5], over 100 µM; in experiment [6] it was over 75.1 µM. Further, the TGI in experiment [7], in experiment [8], in [9] and in experiment [10] was over 100 µM in each case.
For the molecule `COc1ccc(NC(=O)CC(=O)n2nc(-c3ccccc3)c(N=Nc3ccccc3C)c2-c2ccccc2)cc1`, the TGI in experiment [1] was 66 µM; in experiment [2], over 100 µM; in [3], 45.2 µM; in [4], 33.3 µM; in experiment [5], over 100 µM; in [6], over 100 µM. The TGI in experiment [7] was 35.6 µM; in experiment [8] it was 56.9 µM; in [9], 47.8 µM; in experiment [10], 63.7 µM.
As to `O=C(OC(CNc1c(C(=O)c2ccccc2)c(=O)n(Cc2ccccc2)c(=O)n1Cc1ccccc1)CN1CCCCC1)c1ccccc1` (centres undefined), the GI50 was 18.3 µM in experiment [1]; 13.8 µM in [2]; 38.3 µM in experiment [3]; 18 µM in experiment [4]; 15.1 µM in experiment [6]; 42 µM in experiment [7]. In addition, the GI50 in [8] was 19.1 µM; in [9], 21.1 µM; in experiment [10] it was 67.2 µM. Further, the TGI was 39.7 µM in experiment [1]; 31.8 µM in experiment [2]; over 100 µM in experiment [3]; 35.2 µM in [4]; 32.5 µM in [6]; over 100 µM in experiment [7]. In addition, the figures for the TGI in experiment [8], in experiment [9] and in experiment [10] were 34.8 µM, 40.7 µM and over 100 µM, respectively.
